Data reported in article PMC10376059, “New NADPH Oxidase 2 Inhibitors Display Potent Activity against Oxidative Stress by Targeting p22^phox-p47^phox Interactions” (Antioxidants, 2023).

Tests used:
[1] = test system: cardiomyocytes isolated from mdx mice; test: NOX2-mediated ROS production (DCF-DA, confocal) in mdx cardiomyocytes; type: cell-based, mouse; conditions: 20 µM
Source text: Cardiomyocytes were isolated from mdx mice (C57BL/10ScSn-DMDmdx/J, stock number 001801M, Jackson Laboratories, Bar Harbor, […], USA). Male mdx mice of 19 months of age were used, which were housed in individual cages with water and food ad libitum. All the procedures were adjusted to the “Guide for the Care and Use of Laboratory Animals” (1996) of the National Institute of Health and were approved by the Institutional Committee for Animal Care and Use of the Universidad de Talca. Mice were pre-medicated with heparin i.p. (200U.) and then sacrificed by cervical dislocation. The heart was rapidly removed, cannulated through the aorta, and retrogradely perfused in a steady flow (2 mL/min) at 37 °C. The hearts were initially perfused for 10 min with a Ca^2+-free bicarbonate buffer solution containing (in mM) 120 NaCl; 5.4 KCl; 1.2 MgSO4; 1.2 NaH2PO4; 5.6 glucose; 20 NaHCO3; 10 BDM, and 5 taurine, bubbled with a 95% O2–5% CO2 mixture. Enzyme digestion was performed with collagenase type II (1 mg/mL; Worthington Biochemical Corp., Lakewood, NJ, USA) and protease type XIV (0.1 mg/mL; Sigma-Aldrich) as previously reported. Isolated cardiomyocytes were transferred to 1.5 mL Eppendorf tubes and preincubated with the heteroaryl acrylonitrile compounds.
Cardiomyocytes isolated from mdx mice were transferred to Eppendorf tubes to be incubated with 1 μM of the indole heteroaryl-acrylonitrile derivatives for 30 min, protected from light, at room temperature. VAS2870 (20 μM) was used as a positive control for NOX2 inhibition. 2′,7′-dichlorofluorescein diacetate (DCF-DA) (10 μM) was then added and incubated for 15 min. Subsequently, it was allowed to sediment by gravity to remove the supernatant, and the pellets obtained were in a phosphate saline solution (PBS). 200 μL of the cell suspension were placed on pre-treated polylysine slides (Thermo Fischer, USA) and fixed with 2% paraformaldehyde (Sigma-Aldrich®, St. Louis, MO, USA) for 10 min at 4 °C. […] From the acquired images, the fluorescence intensity was quantified at 495 nm, and the data were reported as fluorescence intensity per pixel.

p47^phox = molecular target: T1, p47^phox (Homo sapiens, UniProt P14598); test: p47phox translocation from cytosol to membrane (Western blot) in PMA-stimulated HL-60 differentiated cells; type: cell-based; conditions: PMA 0.8 µM, 20 µM
T1 construct: we evaluated p47^phox translocation from the cytosol to the membrane in HL-60 differentiated cells; endogenous in cells; host or cells: neutrophil-differentiated HL-60 cells treated with PMA; membrane and cytosolic fractions obtained by cryo-fracture
T1 sequence (P14598 1-390): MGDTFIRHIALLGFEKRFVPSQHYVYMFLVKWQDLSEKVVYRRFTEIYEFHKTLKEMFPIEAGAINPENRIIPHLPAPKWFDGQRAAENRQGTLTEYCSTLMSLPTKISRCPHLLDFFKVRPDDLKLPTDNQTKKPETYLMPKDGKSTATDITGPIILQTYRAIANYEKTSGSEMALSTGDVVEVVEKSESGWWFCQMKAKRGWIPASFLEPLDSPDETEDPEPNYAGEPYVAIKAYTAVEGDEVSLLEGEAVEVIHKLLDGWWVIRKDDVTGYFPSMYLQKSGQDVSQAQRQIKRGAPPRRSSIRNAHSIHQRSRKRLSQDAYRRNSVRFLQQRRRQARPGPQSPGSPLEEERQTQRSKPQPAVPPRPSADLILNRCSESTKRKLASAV
Method: Neutrophil-differentiated HL-60 cells (2 × 10^6 cells/mL) were incubated at 37 °C in a humid atmosphere with 5% CO2 and 50 μM of the different acrylonitrile compounds, then PMA 0.8 μM was added and incubated for 1 h to induce the activation of the enzyme NADPH oxidase. As a positive inhibition control, VAS2870 (20 μM) was used. Another two controls were performed: one with cells activated by PMA in the presence of DMSO, and the other (NA, non-activated) with cells in the absence of PMA and the acrylonitrile compounds. In 15 mL conical tubes, 5 mL of cell suspension from each treatment and control condition was transferred at 2 × 10^6 cells/mL and centrifuged at 1000 rpm at 4 °C for 10 min. The supernatant was then discarded, and each pellet was re-suspended in 2 mL of a 4% PBS solution with 2 mM EGTA and 0.25 mM PMSF frozen at −80 °C for 10 min. Then each pellet was thawed on ice. After this, the cell suspension was passed through a glass tissue homogenizer (Deltalab®, I.C.T, S.L, La Rioja, Spain) 20 times. The freezing-thawing and homogenization processes were repeated three times. Finally, the homogenate was centrifuged at 15,000 rpm at 4 °C for 15 min. The supernatant (cytosolic fraction) was removed from the pellet (membranes were prepared). A fraction was removed for the determination of total proteins, and the remainder was stored at −80 °C for further analysis. […]

isolated rat hearts = test: Ischemia-reperfusion in isolated rat heart (Langendorff); conditions: 100 µM, TTC staining

| SMILES | NOX2-derived ROS, DCF (in words) [1] | translocation of p47phox to the membrane (in words) (p47^phox) | infarcted area (in words) (isolated rat hearts) |
| --- | --- | --- | --- |
| c1ccc(Cn2nnc3c(Sc4nc5ccccc5o4)ncnc32)cc1 [VAS2870, 7-(1,3-Benzoxazol-2-ylsulfanyl)-3-benzyl-3H-[1,2,3]triazolo [4,5-d]pyrimidine, reference compound] | reduced | significantly reduced the translocation of p47^phox to the membrane |  |
| COc1cc(C(C)=O)ccc1O [apocynin] |  |  | reduced the infarcted area |
